The values below come from patent US20260217735A1, “HETEROCYCLES AND USES THEREOF” (Kumquat Biosciences Inc., priority 2023, published 2026).

In one assay the target is T1, KRAS G12D (Homo sapiens, UniProt P01116, G12D).
T1 construct: made in house; host or cells: E. coli, e.g. BL21 (DE3)
Kind of assay: HTRF assay, KRAS G12D interaction with SOS1. As to conditions: bins <500 nM / 500 nM to 1000 nM, read-out: Inhibition of KRAS G12D (IC50). The format is biochemical.

For another assay, the target named is T2, KRAS WT (Homo sapiens, UniProt P01116).
T2 construct: made in house; host or cells: E. coli, e.g. BL21 (DE3)
T2 sequence (P01116 1-188 isoform P01116-2): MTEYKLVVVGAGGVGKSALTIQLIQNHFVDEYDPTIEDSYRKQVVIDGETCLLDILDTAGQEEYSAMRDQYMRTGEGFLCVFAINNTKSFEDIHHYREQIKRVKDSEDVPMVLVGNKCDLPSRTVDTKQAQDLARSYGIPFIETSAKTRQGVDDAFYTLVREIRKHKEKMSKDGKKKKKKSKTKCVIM
The experiment in a line: HTRF assay, wildtype KRAS interaction with SOS1. As to conditions: bins <500 nM / 500 nM to 1000 nM, read-out: Inhibition of KRAS WT (IC50). The format is biochemical. For orientation: In TR-FRET formats the signal depends on donor and acceptor labels being close together.

A further assay has as its target T3, KRAS G12V (Homo sapiens, UniProt P01116, G12V).
T3 construct: made in house; host or cells: E. coli, e.g. BL21 (DE3)
Kind of assay: HTRF assay, KRAS G12V interaction with SOS1. Format: biochemical. The note with it: bins <500 nM / 500 nM to 1000 nM, read-out: Inhibition of KRAS G12V (IC50).

Another assay has as its target T4, KRAS G12S (Homo sapiens, UniProt P01116, G12S).
T4 construct: made in house; host or cells: E. coli, e.g. BL21 (DE3)
Kind of assay: HTRF assay, KRAS G12S interaction with SOS1. Format: biochemical. The note with it: bins <500 nM / 500 nM to 1000 nM, read-out: Inhibition of KRAS G12S (IC50).

The next assay relates to MiaPaca2 cells. Kind of assay: Ras cellular assay, growth of cells with K-Ras G12C mutation. The format is cell-based. As to conditions: Homo sapiens, MIA PaCa-2; cell proliferation assay; bins ≤500 nM / >500 nM; read-out: Inhibition of MiaPaca2 Cells (IC50). As to the method:
For example, this assay can be also used to assess selective growth inhibition of a mutant Ras protein relative to a wildtype or different mutant Ras protein.
MIA PaCa-2 (ATCC CRL-1420) and NCI-H1792 (ATCC CRL-5895) cell lines comprise a G12C mutation and can be used to assess Ras cellular signaling in vitro, e.g., in response to an inhibitor compound of the present disclosure. […] MIA PaCa-2 culture medium is prepared with DMEM/Ham's F12 (e.g., with stable glutamine, 10% FCS, and 2.5% horse serum. NCI-H1792 culture medium is prepared with RPMI 1640 (e.g., with stable glutamine) and 10% FCS.
On a first day (e.g., Day 1), Softagar (Select Agar, Invitrogen, 3% in ddH2O autoclaved) is boiled and tempered at 48° C. Appropriate culture medium (i.e., medium) is tempered to 37° C. Agar (3%) is diluted 1:5 in medium (=0.6%) and plated into 96 well plates (Corning, #3904), then incubated at room temperature for agar solidification. A 3% agar is diluted to 0.25% in medium (1:12 dilution) and tempered at 42° C. Cells are trypsinized, counted, and tempered at 37° C. The cells (e.g., MIA PaCa-2 at about 125-150 cells, NCI-H1792 at about 1000 cells) are resuspended in […] 0.25% Agar and plated, followed by incubation at room temperature for agar solidification. The wells are overlaid with […] of the medium. Sister wells in a separate plate are plated for time zero determination. All plates are incubated overnight at 37° C. and 5% CO2.
On a second day (e.g., Day 2), time zero values are measured. A […] volume of Cell Titer 96 Aqueous Solution (Promega) is added to each well and incubated in the dark at 37° C. and 5% CO2. Absorption can be measured at 490 nm and reference wavelength 660 nm. DMSO-prediluted test compounds are added to wells of interest, e.g., with HP Dispenser, to one or more desired concentrations (e.g., a final DMSO concentration of 0.3%).
On a tenth day (e.g., Day 10), absorption by wells treated with the test compounds and control wells are measured with, for example, Cell Titer 96 AQueous and analyzed in comparison to the time zero measurements. The IC50 values are determined using the four parameter fit. The resulting IC50 value is a measurement of the ability of the test compound to reduce cell growth of Ras-driven cells (e.g., tumor cell lines) in vitro and/or in vivo.

T4 sequence (P01116 1-188 isoform P01116-2 G12S): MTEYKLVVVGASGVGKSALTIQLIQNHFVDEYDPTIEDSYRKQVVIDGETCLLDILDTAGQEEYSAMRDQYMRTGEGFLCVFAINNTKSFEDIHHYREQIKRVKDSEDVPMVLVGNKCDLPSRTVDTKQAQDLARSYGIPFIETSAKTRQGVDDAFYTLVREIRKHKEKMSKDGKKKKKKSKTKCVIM
T3 sequence (P01116 1-188 isoform P01116-2 G12V): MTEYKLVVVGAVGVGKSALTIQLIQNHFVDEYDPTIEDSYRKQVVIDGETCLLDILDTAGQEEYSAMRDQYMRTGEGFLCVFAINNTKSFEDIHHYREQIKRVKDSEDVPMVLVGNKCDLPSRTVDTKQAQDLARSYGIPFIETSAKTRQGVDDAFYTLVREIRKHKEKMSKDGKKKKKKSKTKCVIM
T1 sequence (P01116 1-188 isoform P01116-2 G12D): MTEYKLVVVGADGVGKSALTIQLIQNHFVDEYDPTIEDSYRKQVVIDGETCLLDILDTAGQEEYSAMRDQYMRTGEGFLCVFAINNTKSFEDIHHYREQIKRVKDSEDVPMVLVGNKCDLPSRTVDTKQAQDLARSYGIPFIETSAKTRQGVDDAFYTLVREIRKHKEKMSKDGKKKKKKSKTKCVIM

As a reminder, the IC50 is the midpoint of a concentration-inhibition curve. Turning to `CCN(c1nc(OC[C@@]23CCCN2C[C@H](F)C3)nc2c(F)c(-c3ccc(F)c4sc(N)c(C#N)c34)c(Cl)cc12)[C@@H]1CCN(C(=O)n2cnc(C)c2)[C@@H]1C` [Compound 108, 2-amino-4-(6-chloro-4-(ethyl((2R,3R)-2-methyl-1-(4-methyl-1H-imidazole-1-carbonyl)pyrrolidin-3-yl)amino)-8-fluoro-2-(((2R,7aS)-2-fluorotetrahydro-1H-pyrrolizin-7a(5H)-yl)methoxy)quinazolin-7-yl)-7-fluorobenzo[b]thiophene-3-carbonitrile], the IC50 was less than 500 nM at KRAS G12D; less than 500 nM at KRAS WT; less than 500 nM on KRAS G12V; less than 500 nM on KRAS G12S; no more than 500 nM with MiaPaca2 cells.

In the case of `Cc1cn(C(=O)N(C)CC2(F)CN(c3nc(OC[C@@]45CCCN4C[C@H](F)C5)nc4c(F)c(-c5ccc(F)c6sc(N)c(C#N)c56)c(Cl)cc34)C2)cn1` [Compound 109, N-((1-(7-(2-amino-3-cyano-7-fluorobenzo[b]thiophen-4-yl)-6-chloro-8-fluoro-2-(((2R,7aS)-2-fluorotetrahydro-1H-pyrrolizin-7a(5H)-yl)methoxy)quinazolin-4-yl)-3-fluoroazetidin-3-yl)methyl)-N,4-dimethyl-1H-imidazole-1-carboxamide], the IC50 at KRAS G12D was less than 500 nM; at KRAS WT it was less than 500 nM; at KRAS G12V, less than 500 nM; at KRAS G12S, less than 500 nM; with MiaPaca2 cells, no more than 500 nM.

In the case of `CCN(c1nc(OC[C@@]23CCCN2C[C@H](F)C3)nc2c(F)c(-c3ccc(F)c4sc(N)c(C#N)c34)c(C(F)(F)F)cc12)[C@@H]1CCN(C(=O)n2cnc(C)c2C)[C@@H]1C` [Compound 110, 2-amino-4-(4-(((2R,3R)-1-(4,5-dimethyl-1H-imidazole-1-carbonyl)-2-methylpyrrolidin-3-yl)(ethyl)amino)-8-fluoro-2-(((2R,7aS)-2-fluorotetrahydro-1H-pyrrolizin-7a(5H)-yl)methoxy)-6-(trifluoromethyl)quinazolin-7-yl)-7-fluorobenzo[b]thiophene-3-carbonitrile], the IC50 was less than 500 nM on KRAS G12D; less than 500 nM at KRAS WT; less than 500 nM on KRAS G12V; less than 500 nM on KRAS G12S; no more than 500 nM in the assay with MiaPaca2 cells.

With `Cc1c(C#N)ncn1C(=O)N1C[C@]2(CCCCN(c3nc(OC[C@@]45CCCN4C[C@H](F)C5)nc4c(F)c(-c5ccc(F)c6sc(N)c(C#N)c56)c(Cl)cc34)C2)[C@H]1C1(C)CC1` [Compound 111, 1-((1R,4R)-6-(7-(2-amino-3-cyano-7-fluorobenzo[b]thiophen-4-yl)-6-chloro-8-fluoro-2-(((2R,7aS)-2-fluorotetrahydro-1H-pyrrolizin-7a(5H)-yl)methoxy)quinazolin-4-yl)-1-(1-methylcyclopropyl)-2,6-diazaspiro[3.6]decane-2-carbonyl)-5-methyl-1H-imidazole-4-carbonitrile], the IC50 is less than 500 nM on KRAS G12D; less than 500 nM on KRAS WT; less than 500 nM at KRAS G12V; less than 500 nM on KRAS G12S; no more than 500 nM in the assay with MiaPaca2 cells.

For the compound `C[C@@H]1[C@H](N(C)c2nc(OC[C@@]34CCCN3C[C@H](F)C4)nc3c(F)c(-c4ccc(F)c5sc(N)c(C#N)c45)c(Cl)cc23)CCN1C(=O)n1cnc(F)n1` [Compound 112, 2-amino-4-(6-chloro-8-fluoro-4-(((2R,3R)-1-(3-fluoro-1H-1,2,4-triazole-1-carbonyl)-2-methylpyrrolidin-3-yl)(methyl)amino)-2-(((2R,7aS)-2-fluorotetrahydro-1H-pyrrolizin-7a(5H)-yl)methoxy)quinazolin-7-yl)-7-fluorobenzo[b]thiophene-3-carbonitrile], the IC50 was less than 500 nM on KRAS G12D; less than 500 nM at KRAS WT; less than 500 nM on KRAS G12V; less than 500 nM on KRAS G12S; no more than 500 nM in the assay on MiaPaca2 cells.

For the compound `CCN(c1nc(OC[C@@]23CCCN2C[C@H](F)C3)nc2c(F)c(-c3ccc(F)c4sc(N)c(C#N)c34)c(Cl)cc12)[C@@H]1CCN(C(=O)n2cnc(F)n2)[C@@H]1C` [Compound 115, 2-amino-4-(6-chloro-4-(ethyl((2R,3R)-1-(3-fluoro-1H-1,2,4-triazole-1-carbonyl)-2-methylpyrrolidin-3-yl)amino)-8-fluoro-2-(((2R,7aS)-2-fluorotetrahydro-1H-pyrrolizin-7a(5H)-yl)methoxy)quinazolin-7-yl)-7-fluorobenzo[b]thiophene-3-carbonitrile], the IC50 at KRAS G12D is less than 500 nM; at KRAS WT, less than 500 nM; at KRAS G12V it was less than 500 nM; on KRAS G12S it was less than 500 nM; in the assay with MiaPaca2 cells, no more than 500 nM.

With `Cc1nccn1C(=O)N1CC[C@@]12CCN(c1nc(OC[C@@]34CCCN3C[C@H](F)C4)nc3c(F)c(-c4ccc(F)c5sc(N)c(C#N)c45)c(Cl)cc13)C2` [Compound 116, 2-amino-4-(6-chloro-8-fluoro-2-(((2R,7aS)-2-fluorotetrahydro-1H-pyrrolizin-7a(5H)-yl)methoxy)-4-((R)-1-(2-methyl-1H-imidazole-1-carbonyl)-1,6-diazaspiro[3.4]octan-6-yl)quinazolin-7-yl)-7-fluorobenzo[b]thiophene-3-carbonitrile], the concentration for half-maximal inhibition (IC50) on KRAS G12D was less than 500 nM; on KRAS WT, less than 500 nM; at KRAS G12V, less than 500 nM; on KRAS G12S, less than 500 nM; in the assay with MiaPaca2 cells, no more than 500 nM.

For `CN(c1nc(OC[C@@]23CCCN2C[C@H](F)C3)nc2c(F)c(-c3ccc(F)c4sc(N)c(C#N)c34)c(Cl)cc12)[C@@H]1CCN(C(=O)n2ccnc2)C1` [Compound 118, 4-(4-(((R)-1-(1H-imidazole-1-carbonyl)pyrrolidin-3-yl)(methyl)amino)-6-chloro-8-fluoro-2-(((2R,7aS)-2-fluorotetrahydro-1H-pyrrolizin-7a(5H)-yl)methoxy)quinazolin-7-yl)-2-amino-7-fluorobenzo[b]thiophene-3-carbonitrile], the half-maximal inhibitory concentration (IC50) at KRAS G12D was less than 500 nM; on KRAS WT, less than 500 nM; at KRAS G12V, less than 500 nM; on KRAS G12S, less than 500 nM; in the assay with MiaPaca2 cells, no more than 500 nM.

On to `N#Cc1c(N)sc2c(F)ccc(-c3c(Cl)cc4c(N5CCCCC6(CN(C(=O)n7ccnc7Br)C6)C5)nc(OC[C@@]56CCCN5C[C@H](F)C6)nc4c3F)c12` [Compound 119, 2-amino-4-(4-(2-(2-bromo-1H-imidazole-1-carbonyl)-2,6-diazaspiro[3.6]decan-6-yl)-6-chloro-8-fluoro-2-(((2R,7aS)-2-fluorotetrahydro-1H-pyrrolizin-7a(5H)-yl)methoxy)quinazolin-7-yl)-7-fluorobenzo[b]thiophene-3-carbonitrile], for which the IC50 is less than 500 nM at KRAS G12D; less than 500 nM at KRAS WT; less than 500 nM at KRAS G12V; less than 500 nM at KRAS G12S; no more than 500 nM in the assay with MiaPaca2 cells.

In the case of `Cc1nccn1C(=O)N1CC[C@@H](N(C)c2nc(OC[C@@]34CCCN3C[C@H](F)C4)nc3c(F)c(-c4ccc(F)c5sc(N)c(C#N)c45)c(Cl)cc23)[C@H]1C` [Compound 120, 2-amino-4-(6-chloro-8-fluoro-2-(((2R,7aS)-2-fluorotetrahydro-1H-pyrrolizin-7a(5H)-yl)methoxy)-4-(methyl((2R,3R)-2-methyl-1-(2-methyl-1H-imidazole-1-carbonyl)pyrrolidin-3-yl)amino)quinazolin-7-yl)-7-fluorobenzo[b]thiophene-3-carbonitrile], the IC50 is less than 500 nM at KRAS G12D; less than 500 nM at KRAS WT; less than 500 nM at KRAS G12V; less than 500 nM at KRAS G12S; no more than 500 nM with MiaPaca2 cells.
